Measurements as given in patent US20230117034A1, “PYRAZOLOTRIAZINES” (Bayer Aktiengesellschaft, priority 2019, published 2023).

How the values were obtained:
CDK12/CycK = CDK12/CycK (Homo sapiens, UniProt Q9NYV4); test: CDK12/CycK high ATP kinase assay (TR-FRET, 2 mM ATP); assay type: biochemical; details: 2 mM ATP (high ATP); median; read-out: CDK12/CyclinK, 2 mM ATP (high ATP), IC50-[mol/l] (median)
How it was run: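 Read-out is TR-FRET (Eu-anti-rabbit IgG, anti-phospho-c-Myc Ser62 antibody, streptavidin-XL665) after EDTA stop. Reaction ran 60 min at 22 °C using 1 µM biotin-peptide and high ATP (2 mM) with roughly 0.75 nM recombinant CDK12/CycK, after 15 min compound pre-binding; normalised emission ratios yield IC50.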

CDK2/CycE = target: T1, CDK2/CycE (Homo sapiens, UniProt P24941); test: CDK2/CycE kinase assay (TR-FRET, 2 mM ATP); assay type: biochemical; details: 2 mM ATP (high ATP); median; read-out: CDK2/CyclinE, 2 mM ATP (high ATP), IC50 (median)
T1 construct: purchased ProQinase GmbH (Freiburg, Germany); host or cells: insect cells (Sf9)
How it was run: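 Biotin-peptide phosphorylation (0.75 µM substrate, 2 mM ATP final, 25 min, 22 °C) by Sf9-expressed GST-CDK2/GST-CycE, after a 15-min compound pre-binding step. Inhibition scaled between enzyme-free (100%) and uninhibited (0%) wells.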

Chain of CDK12/CycK (Q9NYV4 with tags, fused parts or gaps): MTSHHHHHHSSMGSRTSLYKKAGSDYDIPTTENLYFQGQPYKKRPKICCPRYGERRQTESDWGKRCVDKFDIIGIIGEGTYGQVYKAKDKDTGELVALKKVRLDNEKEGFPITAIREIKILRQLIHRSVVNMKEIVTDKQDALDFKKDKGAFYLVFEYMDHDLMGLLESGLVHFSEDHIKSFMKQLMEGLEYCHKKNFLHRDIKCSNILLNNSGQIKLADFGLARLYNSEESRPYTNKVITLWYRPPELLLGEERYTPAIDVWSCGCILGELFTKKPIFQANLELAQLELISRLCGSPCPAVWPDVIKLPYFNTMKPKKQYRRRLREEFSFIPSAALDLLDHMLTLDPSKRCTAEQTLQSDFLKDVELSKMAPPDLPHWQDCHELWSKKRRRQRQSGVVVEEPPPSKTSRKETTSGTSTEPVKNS
Chain of CDK12/CycK (O75909 1-300 partner limits assumed): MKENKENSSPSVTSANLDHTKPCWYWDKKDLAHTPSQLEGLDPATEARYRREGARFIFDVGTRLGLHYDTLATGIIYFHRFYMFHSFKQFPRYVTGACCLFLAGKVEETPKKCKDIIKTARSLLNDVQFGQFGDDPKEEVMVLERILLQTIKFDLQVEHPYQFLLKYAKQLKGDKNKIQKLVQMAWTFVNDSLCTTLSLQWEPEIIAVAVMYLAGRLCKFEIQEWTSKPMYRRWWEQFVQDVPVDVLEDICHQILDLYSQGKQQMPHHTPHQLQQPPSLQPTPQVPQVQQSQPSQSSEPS

SMILES | IC50 (CDK12/CycK) | IC50 (CDK2/CycE)
CC(C)c1cnn2c(NCc3ncc(-c4ccccc4)[nH]3)nc(N3CCCCC3)nc12 [Example 36, N-[(5-phenyl-1H-imidazol-2-yl)methyl]-2-(piperidin-1-yl)-8-(propan-2-yl)pyrazolo[1,5-a][1,3,5]triazin-4-amine] | > 20 µM | > 20 µM
NCCOCCOCCNc1nc(NCc2nc3ccccc3[nH]2)n2ncc(Br)c2n1 [Example 412, N2-{2-[2-(2-aminoethoxy)ethoxy]ethyl}-N4-[(1H-benzimidazol-2-yl)methyl]-8-bromopyrazolo[1,5-a][1,3,5]triazine-2,4-diamine] | > 5.71 µM | > 20 µM
OC[C@H]1CCCCN1c1nc(NCc2nc3ccccc3[nH]2)n2ncc(Br)c2n1 [Example 60, [(2R)-1-(4-{[(1H-benzimidazol-2-yl)methyl]amino}-8-bromopyrazolo[1,5-a][1,3,5]triazin-2-yl)piperidin-2-yl]methanol] | 1.86 µM | 0.738 µM
Brc1cnn2c(NCc3nnc(-c4ccccc4)[nH]3)nc(N3CCCCC3)nc12 [Example 49, 8-bromo-N-[(5-phenyl-4H-1,2,4-triazol-3-yl)methyl]-2-(piperidin-1-yl)pyrazolo[1,5-a][1,3,5]triazin-4-amine] | 6.12 µM | 2.29 µM
Brc1cnn2c(NCc3nc4ccccc4[nH]3)nc(N3CC4(COC4)C3)nc12 [Example 48, N-[(1H-benzimidazol-2-yl)methyl]-8-bromo-2-(2-oxa-6-azaspiro[3.3]heptan-6-yl)pyrazolo[1,5-a][1,3,5]triazin-4-amine] | > 5.71 µM | 12.6 µM
Brc1cnn2c(NCc3nnc(-c4ccccn4)[nH]3)nc(N3CCOCC3)nc12 [Example 54, 8-bromo-2-(morpholin-4-yl)-N-{[5-(pyridin-2-yl)-4H-1,2,4-triazol-3-yl]methyl}pyrazolo[1,5-a][1,3,5]triazin-4-amine] | 5.65 µM | 1.89 µM
COc1ccccc1-c1nnc(CNc2nc(N3CCN(C)CC3)nc3c(C4CC4(F)F)cnn23)[nH]1 (stereo not drawn) [Example 430, 8-(2,2-difluorocyclopropyl)-N-{[5-(2-methoxyphenyl)-4H-1,2,4-triazol-3-yl]methyl}-2-(4-methylpiperazin-1-yl)pyrazolo[1,5-a][1,3,5]triazin-4-amine] | > 20 µM | > 20 µM
Fc1cccc2[nH]c(CNc3nc(N4CCN5CCC4CC5)nc4c(C(F)(F)F)cnn34)nc12 [Example 410, 2-(1,4-diazabicyclo[3.2.2]nonan-4-yl)-N-[(4-fluoro-1H-benzimidazol-2-yl)methyl]-8-(trifluoromethyl)pyrazolo[1,5-a][1,3,5]triazin-4-amine] | 1.58 µM | 10 µM
CC1(C)CN(c2nc(NCc3nc4ccccc4[nH]3)n3ncc(Br)c3n2)CCO1 [Example 58, N-[(1H-benzimidazol-2-yl)methyl]-8-bromo-2-(2,2-dimethylmorpholin-4-yl)pyrazolo[1,5-a][1,3,5]triazin-4-amine] | 6.44 µM | 10.7 µM
CC(C)(O)COc1nc(NCc2nc3ccccc3[nH]2)n2ncc(Br)c2n1 [Example 398, 1-[(4-{[(1H-benzimidazol-2-yl)methyl]amino}-8-bromopyrazolo[1,5-a][1,3,5]triazin-2-yl)oxy]-2-methylpropan-2-ol] | 14.6 µM | 10.4 µM
CCc1cnn2c(NCc3nc4ccccc4[nH]3)nc(N3CCN(C)CC3)nc12 [Example 434, N-[(1H-benzimidazol-2-yl)methyl]-8-ethyl-2-(4-methylpiperazin-1-yl)pyrazolo[1,5-a][1,3,5] triazin-4-amine] | > 17.6 µM | 6.37 µM

Results, then the compound that gave them:

IC50 (CDK12/CycK) | IC50 (CDK2/CycE) | SMILES
> 20 µM | > 20 µM | Cn1cc(-c2cnn3c(NCc4nc5cc(Cl)c(Cl)cc5[nH]4)nc(N4CCOCC4)nc23)cn1 [Example 419, N-[(5,6-dichloro-1H-benzimidazol-2-yl)methyl]-8-(1-methyl-1H-pyrazol-4-yl)-2-(morpholin-4-yl)pyrazolo[1,5-a][1,3,5]triazin-4-amine]
3.95 µM | > 20 µM | COc1cccc2nc(CNc3nc(N4CCOCC4)nc4c(-c5ccnnc5)cnn34)[nH]c12.O=C(O)C(F)(F)F [Example 439, trifluoroacetic acid N-[(7-methoxy-1H-benzimidazol-2-yl)methyl]-2-(morpholin-4-yl)-8-(pyridazin-4-yl)pyrazolo[1,5-a][1,3,5]triazin-4-amine]
1.86 µM | 5.23 µM | FC(F)(F)c1cnn2c(NCc3nnc(-c4ccccc4)[nH]3)nc(N3CCOCC3)nc12 [Example 427, 2-(morpholin-4-yl)-N-[(5-phenyl-4H-1,2,4-triazol-3-yl)methyl]-8-(trifluoromethyl)pyrazolo[1,5-a][1,3,5]triazin-4-amine]
0.0239 µM | 17.3 µM | Fc1ccc2[nH]c(CNc3nc(N4CCOCC4)nc4c(C(F)(F)F)cnn34)nc2c1F [Example 426, N-[(4,5-difluoro-1H-benzimidazol-2-yl)methyl]-2-(morpholin-4-yl)-8-(trifluoromethyl)pyrazolo [1,5-a][1,3,5]triazin-4-amine]
> 20 µM | > 20 µM | Clc1cc2nc(CNc3nc(N4CCOCC4)nc4c(-c5cscn5)cnn34)[nH]c2cc1Cl [Example 424, N-[(5,6-dichloro-1H-benzimidazol-2-yl)methyl]-2-(morpholin-4-yl)-8-(1,3-thiazol-4-yl)pyrazolo [1,5-a][1,3,5]triazin-4-amine]
> 20 µM | > 20 µM | Fc1ccc2[nH]c(CNc3nc(N4CCOCC4)nc4c(-c5nccs5)cnn34)nc2c1F [Example 413, N-[(4,5-difluoro-1H-benzimidazol-2-yl)methyl]-2-(morpholin-4-yl)-8-(1,3-thiazol-2-yl)pyrazolo [1,5-a][1,3,5]triazin-4-amine]
> 7.86 µM | > 20 µM | O=C(O)C(F)(F)F.c1ccc2[nH]c(CNc3nc(N4CCOCC4)nc4c(-c5ccnnc5)cnn34)nc2c1 [Example 438, trifluoroacetic acid N-[(1H-benzimidazol-2-yl)methyl]-2-(morpholin-4-yl)-8-(pyridazin-4-yl)pyrazolo[1,5-a][1,3,5]triazin-4-amine]
2.3 µM | 7.57 µM | CCc1cnn2c(NCc3nc4c(F)c(F)ccc4[nH]3)nc(N3CCOCC3)nc12 [Example 432, N-[(4,5-difluoro-1H-benzimidazol-2-yl)methyl]-8-ethyl-2-(morpholin-4-yl)pyrazolo[1,5-a][1,3,5]triazin-4-amine]
> 20 µM | > 20 µM | Clc1cc2nc(CNc3nc(N4CCOCC4)nc4c(-c5ccnnc5)cnn34)[nH]c2cc1Cl.O=C(O)C(F)(F)F [Example 440, trifluoroacetic acid N-[(5,6-dichloro-1H-benzimidazol-2-yl)methyl]-2-(morpholin-4-yl)-8-(pyridazin-4-yl)pyrazolo[1,5-a][1,3,5]triazin-4-amine]
> 20 µM | > 20 µM | Cn1cc(-c2cnn3c(NCc4nc5c(F)c(F)ccc5[nH]4)nc(N4CCOCC4)nc23)cn1 [Example 418, N-[(4,5-difluoro-1H-benzimidazol-2-yl)methyl]-8-(1-methyl-1H-pyrazol-4-yl)-2-(morpholin-4-yl)pyrazolo[1,5-a][1,3,5]triazin-4-amine]
2.14 µM | > 20 µM | Fc1ccc2[nH]c(CNc3nc(N4CCOCC4)nc4c(CC(F)F)cnn34)nc2c1F.O=C(O)C(F)(F)F [Example 425, trifluoroacetic acid N-[(4,5-difluoro-1H-benzimidazol-2-yl)methyl]-8-(2,2-difluoroethyl)-2-(morpholin-4-yl)pyrazolo[1,5-a][1,3,5]triazin-4-amine]
> 20 µM | > 20 µM | COc1cccc2nc(CNc3nc(N4CCN(C)CC4)nc4c(-c5nccs5)cnn34)[nH]c12 [Example 416, N-[(7-methoxy-1H-benzimidazol-2-yl)methyl]-2-(4-methylpiperazin-1-yl)-8-(1,3-thiazol-2-yl)pyrazolo[1,5-a][1,3,5]triazin-4-amine]
> 7.75 µM | > 20 µM | Fc1ccc2[nH]c(CNc3nc(N4CCOCC4)nc4c(-c5ccnnc5)cnn34)nc2c1F [Example 417, N-[(4,5-difluoro-1H-benzimidazol-2-yl)methyl]-2-(morpholin-4-yl)-8-(pyridazin-4-yl)pyrazolo[1,5-a][1,3,5]triazin-4-amine]
2.44 µM | 2.11 µM | Cc1cccc(-c2nnc(CNc3nc(N4CCOCC4)nc4c(Br)cnn34)[nH]2)c1 [Example 40, 8-bromo-N-{[5-(3-methylphenyl)-4H-1,2,4-triazol-3-yl]methyl}-2-(morpholin-4-yl)pyrazolo[1,5-a][1,3,5]triazin-4-amine]
2.7 µM | 1.78 µM | CCc1cnn2c(NCc3nc4c(OC)cccc4[nH]3)nc(N3CCOCC3)nc12 [Example 433, 8-ethyl-N-[(4-methoxy-1H-benzimidazol-2-yl)methyl]-2-(morpholin-4-yl)pyrazolo[1,5-a][1,3,5]triazin-4-amine]
2.03 µM | 1.68 µM | Brc1cnn2c(NCc3nnc(-c4cccnc4)[nH]3)nc(N3CCOCC3)nc12 [Example 53, 8-bromo-2-(morpholin-4-yl)-N-{[5-(pyridin-3-yl)-4H-1,2,4-triazol-3-yl]methyl}pyrazolo[1,5-a][1,3,5]triazin-4-amine]
